The values that follow come from ChEMBL document CHEMBL6134876, “End-to-End Backbone Cyclization Enhances Passive Permeability of bRo5 Oligomeric Depsipeptides with Nonlinear Size Dependence” (ACS Med Chem Lett, 2025).

Starred links: 1 amine or outer side, 2 acyl side, 3 side chain; linkers in the order of their positions; H or OH if unused. Non-standard residues stand in square brackets, D forms with d. Residues, ends and D or L forms follow the SMILES beside them. X1 = CCCCC[C@H](O[*:1])C(=O)[*:2]; Ahp(2) = CCCCC[C@H](N)C(=O)O; dNMeA = CN[C@H](C)C(=O)O

Common to all, as to assay type: ADME
Data set [1] can be described thus: Permeability of compound assessed as compound recovery incubated for 14 to 18 hrs by PAMPA. As to conditions: time 14-18 hrs, read-out: Drug recovery.
Data set [2] in a line: Permeability of compound assessed as compound diffusion incubated for 14 to 18 hrs by PAMPA. As to conditions: time 14-18 hrs. Background: In PAMPA a lipid-coated filter parts donor from acceptor wells.
The nature of data set [3]: Apparent permeability of compound incubated for 14 to 18 hrs by PAMPA. As to conditions: time 14-18 hrs.

For `CCCCC[C@H](NC(=O)[C@@H](C)N(C)C(=O)[C@H](CCCCC)NC(=O)[C@@H](C)N(C)C(=O)[C@H](CCCCC)NC(=O)[C@@H](C)N(C)C(=O)[C@H](CCCCC)OC(=O)[C@@H](C)N(C)C(=O)OC(C)(C)C)C(=O)OCc1ccccc1`, the recovery in data set [1] was determined as 89%. In addition, the Activity in data set [2] came out at 12%.

Take `CCCCC[C@H](NC(=O)[C@@H](C)N(C)C(=O)[C@H](CCCCC)OC(=O)[C@@H](C)N(C)C(=O)[C@H](CCCCC)OC(=O)[C@@H](C)N(C)C(=O)[C@H](CCCCC)OC(=O)[C@@H](C)N(C)C(=O)OC(C)(C)C)C(=O)OCc1ccccc1`: the recovery in data set [1] was found to be 93%.

As to `CCCCC[C@H](OC(=O)[C@@H](C)N(C)C(=O)[C@H](CCCCC)OC(=O)[C@@H](C)N(C)C(=O)[C@H](CCCCC)OC(=O)[C@@H](C)N(C)C(=O)[C@H](CCCCC)OC(=O)[C@@H](C)N(C)C(=O)[C@H](CCCCC)OC(=O)[C@@H](C)N(C)C(=O)[C@H](CCCCC)OC(=O)[C@@H](C)N(C)C(=O)OC(C)(C)C)C(=O)OCc1ccccc1`, in data set [3], the Papp entry was “Below_limit_of_detection” and the logPapp result is given as “Below_limit_of_detection”. For the same compound, the Activity in data set [2] is less than 5%.

Take `CCCCC[C@H](NC(=O)[C@@H](C)N(C)C(=O)[C@H](CCCCC)NC(=O)[C@@H](C)N(C)C(=O)[C@H](CCCCC)OC(=O)[C@@H](C)N(C)C(=O)[C@H](CCCCC)OC(=O)[C@@H](C)N(C)C(=O)OC(C)(C)C)C(=O)OCc1ccccc1`: in data set [1], the recovery came out at 92%.

Regarding `CCCCC[C@@H]1NC(=O)[C@@H](C)N(C)C(=O)[C@H](CCCCC)OC(=O)[C@@H](C)N(C)C(=O)[C@H](CCCCC)NC(=O)[C@@H](C)N(C)C(=O)[C@H](CCCCC)OC(=O)[C@@H](C)N(C)C1=O` (cyclo([Ahp(2)][dNMeA][X1][dNMeA][Ahp(2)][dNMeA][X1][dNMeA])), the Activity in data set [2] worked out at 25%.
